Experimental data as given in ChEMBL document CHEMBL6114994, “Ligustrazine as a multitarget scaffold in drug design and discovery” (Bioorg Med Chem, 2025).
pEC50, pIC50: −log10 of the molar value. Converted amounts (≈) assume the structure as drawn. Blank lines part the entries; values can stand above or below the compound they belong to.

Experiments:
[1] = tested on: HCT-116; test: Antiproliferative activity against human HCT-116 cells assessed as reduction in cell viability incubated for 72 hrs by MTT assay; type: functional, cell-based; conditions: HCT-116, 72 h
[2] = tested on: MCF7; test: Antiproliferative activity against human MCF7 cells assessed as reduction in cell viability incubated for 72 hrs by MTT assay; type: functional, cell-based; conditions: MCF7, 72 h
[3] = tested on: MDA-MB-231; test: Antiproliferative activity against human MDA-MB-231 cells assessed as reduction in cell viability incubated for 72 hrs by MTT assay; type: functional, cell-based; conditions: MDA-MB-231, 72 h
[4] = Inhibition of Lipoxygenase (unknown origin); set-up: species or system Homo sapiens
[5] = tested on: HepG2; test: Cytotoxicity against human HepG2 cells assessed as inhibition of cell growth at 10 uM incubated for 72 hrs by MTT assay relative to control; type: functional; set-up: scale not given: the % may be the effect or the level left
[6] = tested on: MDCK; test: Cytotoxicity against dog MDCK cells assessed as inhibition of cell growth at 10 uM relative to control; type: functional, Canis lupus familiaris; set-up: scale not given: the % may be the effect or the level left
[7] = target: T1, Prostaglandin G/H synthase 1 (Ovis aries, UniProt P05979); test: Inhibition of ovine COX-1 by EIA method
T1 sequence (P05979 whole entry): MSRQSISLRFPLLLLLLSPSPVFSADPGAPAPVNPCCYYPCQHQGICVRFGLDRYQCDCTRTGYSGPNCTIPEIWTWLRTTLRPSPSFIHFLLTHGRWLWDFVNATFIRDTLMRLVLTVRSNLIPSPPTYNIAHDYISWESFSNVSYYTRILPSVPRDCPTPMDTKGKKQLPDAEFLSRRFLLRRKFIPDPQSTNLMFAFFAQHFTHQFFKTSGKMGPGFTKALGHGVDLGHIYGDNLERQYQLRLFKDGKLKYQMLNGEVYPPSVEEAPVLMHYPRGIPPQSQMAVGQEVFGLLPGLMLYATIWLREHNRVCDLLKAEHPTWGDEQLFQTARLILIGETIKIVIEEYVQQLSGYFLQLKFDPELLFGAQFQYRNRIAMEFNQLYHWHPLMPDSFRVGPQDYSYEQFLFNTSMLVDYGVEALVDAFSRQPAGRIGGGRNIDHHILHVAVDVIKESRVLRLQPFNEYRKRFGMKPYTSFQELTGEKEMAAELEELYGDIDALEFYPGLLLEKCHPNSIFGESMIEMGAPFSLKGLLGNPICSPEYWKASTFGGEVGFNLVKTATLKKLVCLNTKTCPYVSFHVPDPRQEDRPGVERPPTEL

[8] = tested on: A549; test: cells; conditions: Homo sapiens
Description: Antiproliferative activity against human A549 cells assessed as reduction in cell viability by MTT assay

[9] = Cytoprotective activity against H2O2-induced oxidative stress in human HBMEC-2 cells assessed as increase in cell viability incubated for 24 hrs by MTT assay; type: functional, cell-based; conditions: HBMEC-2, 24 h
[10] = tested on: PC-12; test: Cytoprotective activity against COCL2-induced cellular damage in rat PC12 cells assessed as reduction in cell viability incubated for 48 hrs by MTT assay; type: functional, cell-based; conditions: PC-12, 48 h
[11] = target: T2, Acetylcholinesterase (Homo sapiens, UniProt P22303); test: Inhibition of AChE (unknown origin) by Ellman's method
[12] = tested on: HUVEC; test: Protection against H2O2-induced oxidative stress in HUVEC cells; type: functional, cell-based; conditions: Homo sapiens
[13] = tested on: SH-SY5Y; test: Cytoprotective activity against H2O2-induced oxidative stress in human SH-SY5Y cells assessed as increase in cell viability incubated for 24 hrs by MTT assay; type: functional, cell-based
[14] = tested on: SH-SY5Y; test: Cytoprotective activity against OGD/R induced human SH-SY5Y cells assessed as assessed as cell survival rate at 10 uM measured after 8 hrs by MTT assay relative to control; type: functional
[15] = Solubility in water; type: physicochemical
[16] = target: T2, Acetylcholinesterase; test: Inhibition of AChE (unknown origin)
[17] = Solubility in water by HPLC analysis; type: physicochemical
[18] = Inhibition of accumulation of sorbitol in human Red blood cells; type: functional, cell-based; conditions: erythrocyte
[19] = target: Aldo-keto reductase family 1 member B1 (Rattus norvegicus, UniProt P07943); test: Inhibition of rat lens aldose reductase

T2 sequence (P22303 whole entry): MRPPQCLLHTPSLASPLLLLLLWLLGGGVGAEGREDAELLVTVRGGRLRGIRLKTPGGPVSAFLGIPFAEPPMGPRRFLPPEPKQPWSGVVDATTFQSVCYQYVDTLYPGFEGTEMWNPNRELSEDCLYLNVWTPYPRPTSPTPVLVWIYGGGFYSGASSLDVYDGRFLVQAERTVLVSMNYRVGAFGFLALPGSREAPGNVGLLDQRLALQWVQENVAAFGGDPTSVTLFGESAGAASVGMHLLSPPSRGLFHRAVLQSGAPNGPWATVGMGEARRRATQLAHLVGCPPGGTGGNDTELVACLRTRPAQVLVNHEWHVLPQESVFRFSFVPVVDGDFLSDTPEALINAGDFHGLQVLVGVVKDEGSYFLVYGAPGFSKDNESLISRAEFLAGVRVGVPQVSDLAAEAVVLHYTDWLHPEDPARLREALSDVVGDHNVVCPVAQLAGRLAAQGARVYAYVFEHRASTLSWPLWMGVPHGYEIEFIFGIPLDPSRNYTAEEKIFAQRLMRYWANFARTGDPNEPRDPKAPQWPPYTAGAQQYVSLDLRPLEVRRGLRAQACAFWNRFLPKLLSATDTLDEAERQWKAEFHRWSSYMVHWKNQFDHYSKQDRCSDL

- pIC50 [1]: 5.77
- pIC50 [2]: 5.68
- pIC50 [3]: 5.41
Structure (SMILES): O=[N+]([O-])c1ccc2c(c1)S(=O)(=O)C=C2

- pIC50 [4]: 5.12
Structure (SMILES): Cc1nc(C)c(/C=C2\CN(C)C/C(=C\c3nc(C)c(C)nc3C)C2=O)nc1C

Structure (SMILES): C=C(C)[C@@H]1CC[C@]2(C(=O)OCc3nc(C)c(C)nc3C)CC[C@]3(C)[C@H](CC[C@@H]4[C@@]5(C)CC[C@H](O)C(C)(C)[C@@H]5CC[C@]43C)[C@@H]12
- Activity [5]: 99.87%
- Activity [6]: 26.5%

- pIC50 [7]: 6.30
Structure (SMILES): COc1ccc(/C=C2\CN(C)C/C(=C\c3nc(C)c(C)nc3C)C2=O)c(Cl)c1

- pIC50 [1]: < 5.00
- pIC50 [2]: < 5.00
- pIC50 [3]: < 5.00
Structure (SMILES): Cc1nc(C)c(C(=O)NC2CCN(C(=O)C3=Cc4ccccc4S3(=O)=O)CC2)nc1C

- pIC50 [1]: < 5.00
- pIC50 [2]: < 5.00
- pIC50 [3]: < 5.00
Structure (SMILES): Cc1nc(C)c(C(=O)NC2CCN(C(=O)C3=Cc4ccccc4S3(=O)=O)C2)nc1C (configuration not stated)

- pIC50 [8]: 5.66
Structure (SMILES): COc1ccc(/C=C/C(=O)/C=C/c2nc(C)c(C)nc2C)cc1O

Structure (SMILES): COc1cc(CNC(=O)c2ccc(O)c(O)c2)ccc1OCc1nc(C)c(C)nc1C
- pEC50 [9]: 5.38

Structure (SMILES): Cc1nc(C)c(COC(=O)/C=C/c2ccc(OCc3nc(C)c(C)nc3C)cc2)nc1C
- pEC50 [10]: 5.43

Structure (SMILES): COc1cc(/C=C/C(=O)c2ccc(OCCN3CCCC3)cc2)ccc1OCc1nc(C)c(C)nc1C
- pIC50 [11]: 6.01

Structure (SMILES): COc1cc(C(=O)Nc2cccc(N(C)C)c2)ccc1OCc1nc(C)c(C)nc1C
- pEC50 [10]: 4.76

- pIC50 [1]: 5.19
- pIC50 [2]: 5.48
- pIC50 [3]: 5.31
Structure (SMILES): Cc1nc(C)c(C(=O)N2CCN(C(=O)C3=Cc4c(Br)cccc4S3(=O)=O)CC2)nc1C

Structure (SMILES): Cc1nc(C)c(/C=C/c2nc(C)c(C)nc2C)nc1C
- pEC50 [12]: 4.59

- pEC50 [13]: 5.59
Structure (SMILES): CC(=O)Oc1ccc(C[C@@H](OC(C)=O)C(=O)OCc2nc(C)c(C)nc2C)cc1OC(C)=O

Structure (SMILES): CCCCC(OC(=O)CN1CCN(C)CC1)c1ccc(I)cc1C(=O)OCc1nc(C)c(C)nc1C (configuration not stated)
- Activity [14]: 90%

- pIC50 [1]: 5.57
- pIC50 [2]: 5.82
- pIC50 [3]: 5.66
Structure (SMILES): Cc1nc(C)c(CN2CCN(C(=O)C3=Cc4c(Cl)cccc4S3(=O)=O)CC2)nc1C

- solubility [15]: > 0.1 µg/mL
Structure (SMILES): C=CCC(CC=C)(OC(=O)[C@@H](Cc1ccc(OC(C)=O)c(OC(C)=O)c1)OC(=O)CN)c1nc(C)c(C)nc1C

Structure (SMILES): COC(=O)C1=CO[C@H](OC)[C@H]2C(CN3CCN(Cc4nc(C)c(C)nc4C)CC3)=CC[C@@H]12
- pIC50 [16]: 6.66

- solubility [17]: 0.029 µg/mL (≈ 0.107 µM)
Structure (SMILES): O=c1c(-c2ccc(O)cc2)coc2cc(O)cc(O)c12 [GENISTEIN]

- pIC50 [18]: 5.70
- pIC50 [19]: 6.49
Structure (SMILES): O=C(/C=C/c1ccc(O)cc1)c1ccc(O)cc1O [ISOLIQUIRITIGENIN]
